Experiments:
[1] = target: T1, VEGF receptor tyrosine kinase-2 (VEGF-R2) (Homo sapiens, UniProt P35968); assay: VEGF receptor-2 kinase assay (Assay 3); format: biochemical; conditions: 8 μM ATP, poly-(Glu4Tyr), 10 min 22° C.; read-out: VEGF-R2 (Assay 3) Concentration for half-maximal inhibition of the enzyme activity, IC50
T1 construct: GST; made in house; host or cells: baculovirus-infected insect cells (Sf9)

MCF7 = assay: Proliferation assay MCF7; format: cell-based, human; conditions: MCF7, estrogen receptor-positive mamma carcinoma, 4 days, crystal violet
Method in brief: (§1)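 Human tumour cells were seeded at 1000–5000 cells per well in DMEM/HAMS F12 with 2 mM L-glutamine and 10% FCS, then exposed after 24 h to compound at 0.01–30 μM (0.5% DMSO) for 4 days. Proliferation was read by crystal violet staining at 595 nm, normalised to a zero-point plate, and IC50 obtained by 4-parameter fit.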

SW480 = assay: Proliferation assay SW480; format: cell-based; conditions: Homo sapiens, 96 h; SW480, colon/rectum carcinoma; 4 days, crystal violet
Method: (§2) Cultivated human tumor cells (originally obtained from ATCC, HeLa-MaTu and HeLa-MaTu-ADR, originally obtained from Epo GmbH, Berlin, Germany) were plated at a density of 1000 to 5000 cells/measuring point, depending on the growth rate of the cell line, in a 96-well multititer plate in 200 μl of growth medium (DMEM/HAMS F12, 2 mM L-glutamine, 10% fetal calf serum). After 24 hours the cells of one plate (zero-point plate) were stained with crystal violet (see below), whereas the medium of the other plates was replaced with fresh culture medium (200 μl), to which the test substances had been added at various concentrations (0 μM, and in the range 0.01-30 μM; the final concentration of the solvent dimethyl sulfoxide was 0.5%). The cells were incubated for 4 days in the presence of the test substances. Cellular proliferation was determined by staining the cells with crystal violet: the cells were fixed by adding 20 μl/measuring point of an 11% glutaraldehyde solution for 15 min at room temperature. After washing the fixed cells with water three times, the plates were dried at room temperature. The cells were stained by adding 100 μl/measuring point of a 0.1% crystal violet solution (pH adjusted to pH3 by adding acetic acid). After washing the stained cells with water three times, the plates were dried at room temperature. The dye was dissolved by adding 100 μl/measuring point of a 10% acetic acid solution. The extinction was determined photometrically at a wavelength of 595 nm. The percentage change in cell growth was calculated by standardization of the measured values to the extinction values of the zero-point plate (=0%) and the extinction of the untreated (0 μM) cells (=100%). The measured data were standardized to 0% inhibition (cell proliferation without inhibitor) and 100% inhibition (zero-point plate). The IC50 values were determined by means of a 4-parameter fit using the company's own software.
(§3) The substances were examined in the following cell lines which, in an exemplary manner, represent the stated indications: […]

PC3 = assay: Proliferation assay PC3; format: cell-based; conditions: Homo sapiens, PC-3, 96 h; PC3, prostate carcinoma; 4 days, crystal violet
Method: as §2, §3

NCI-H460 = assay: Proliferation assay NCI-H460; format: cell-based, human; conditions: NCI-H460, non-small-cell bronchial carcinoma, 4 days, crystal violet
Method in brief: as §1

Caki2 = assay: Proliferation assay Caki2; format: cell-based; conditions: Homo sapiens, CAKI-2, 96 h; Caki2, kidney carcinoma; 4 days, crystal violet
Method: as §2, §3

786-O = assay: Proliferation assay 786-O; format: cell-based; conditions: Homo sapiens, 786-0, 96 h, kidney carcinoma, 4 days, crystal violet
Method: as §2, §3

MIA PaCa-2 = assay: Proliferation assay MIA PaCa-2; format: cell-based; conditions: Homo sapiens, 96 h; MIA PaCa-2, pancreas carcinoma; 4 days, crystal violet
Method: as §2, §3

HeLa = assay: Proliferation assay HeLa; format: cell-based; conditions: Homo sapiens, 96 h, cervix carcinoma, 4 days, crystal violet
Method: as §2, §3

HeLa-MaTu-ADR = assay: Proliferation assay HeLa-MaTu-ADR; format: cell-based, human; conditions: cervix carcinoma, 4 days, crystal violet
Method in brief: as §1

T1 sequence (P35968 20-1356, species assumed): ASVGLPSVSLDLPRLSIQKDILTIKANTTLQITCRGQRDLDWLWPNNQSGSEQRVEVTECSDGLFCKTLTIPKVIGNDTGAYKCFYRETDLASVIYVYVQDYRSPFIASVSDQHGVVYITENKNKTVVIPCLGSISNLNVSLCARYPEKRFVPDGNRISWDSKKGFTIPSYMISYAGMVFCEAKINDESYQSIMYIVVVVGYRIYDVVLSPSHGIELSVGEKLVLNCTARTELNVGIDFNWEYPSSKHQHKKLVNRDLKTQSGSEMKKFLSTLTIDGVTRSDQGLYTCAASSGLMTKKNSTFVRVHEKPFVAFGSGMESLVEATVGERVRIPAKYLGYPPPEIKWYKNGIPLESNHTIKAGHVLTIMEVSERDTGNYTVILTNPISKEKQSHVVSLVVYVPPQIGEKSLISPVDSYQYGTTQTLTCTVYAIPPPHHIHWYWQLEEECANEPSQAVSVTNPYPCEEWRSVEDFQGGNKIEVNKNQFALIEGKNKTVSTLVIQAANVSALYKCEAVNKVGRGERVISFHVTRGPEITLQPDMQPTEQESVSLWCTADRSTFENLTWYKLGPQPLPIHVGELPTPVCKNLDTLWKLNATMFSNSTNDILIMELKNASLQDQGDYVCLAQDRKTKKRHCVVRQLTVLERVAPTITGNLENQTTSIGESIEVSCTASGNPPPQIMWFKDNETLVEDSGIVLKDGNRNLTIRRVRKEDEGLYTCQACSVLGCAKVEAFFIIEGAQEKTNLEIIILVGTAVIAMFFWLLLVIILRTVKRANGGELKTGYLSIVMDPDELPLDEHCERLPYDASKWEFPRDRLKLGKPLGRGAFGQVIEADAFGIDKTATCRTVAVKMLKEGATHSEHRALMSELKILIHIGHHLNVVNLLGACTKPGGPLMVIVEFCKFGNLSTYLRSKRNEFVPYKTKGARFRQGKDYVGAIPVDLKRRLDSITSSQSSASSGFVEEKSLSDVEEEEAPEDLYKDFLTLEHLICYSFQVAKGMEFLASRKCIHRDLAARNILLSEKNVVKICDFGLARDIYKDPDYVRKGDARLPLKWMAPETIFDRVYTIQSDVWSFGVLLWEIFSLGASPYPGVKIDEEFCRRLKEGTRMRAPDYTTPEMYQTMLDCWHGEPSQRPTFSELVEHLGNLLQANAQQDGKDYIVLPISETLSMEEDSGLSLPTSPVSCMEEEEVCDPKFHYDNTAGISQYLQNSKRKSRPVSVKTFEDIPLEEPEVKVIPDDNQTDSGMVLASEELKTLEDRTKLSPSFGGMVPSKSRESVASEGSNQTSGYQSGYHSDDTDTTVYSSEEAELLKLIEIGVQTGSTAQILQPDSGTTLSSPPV

Row | IC50 [1] | IC50 (MCF7; Homo sapiens, MCF7, 96 h) | IC50 (SW480) | IC50 (PC3) | IC50 (NCI-H460; Homo sapiens, NCI-H460, 96 h) | IC50 (786-O) | IC50 (MIA PaCa-2) | IC50 (HeLa) | IC50 (HeLa-MaTu-ADR; Homo sapiens, 96 h) | IC50 (MCF7) | IC50 (NCI-H460) | IC50 (HeLa-MaTu-ADR) | Compound | IC50 (Caki2)
1 | 46 nM | 34 nM | 22 nM | < 10 nM | 16 nM | 30 nM | 14 nM | 33 nM | 16 nM |  |  |  | C[C@@H](O)[C@@H](C)Nc1nc(Nc2ccc(S(=N)(=O)C3CC3)cc2)ncc1C(F)(F)F (mixture of isomers) [Example 4-SI-1, (RS)—S-Cyclopropyl-S-(4-{[4-{[(1R,2R)-2-hydroxy-1-methylpropyl]amino}-5-(trifluoromethyl)-pyrimidin-2-yl]amino}phenyl)sulfoximide] | < 10 nM
2 | 281 nM |  | 19 nM | 27 nM |  | 22 nM | 19 nM | 13 nM |  |  |  |  | C[C@@H](O)[C@@H](C)Oc1nc(Nc2ccc(S(C)(=N)=O)cc2)ncc1C(F)(F)F (single isomer, unassigned) [Example 2-SI-2] | 24 nM
3 |  |  |  |  |  |  |  |  |  | 11 nM | 16 nM | 7 nM | C[C@@H](O)[C@@H](C)Oc1nc(Nc2ccc(S(C)(=N)=O)cc2)ncc1C(F)(F)F (mixture of isomers) [Example 2-SI-2, (RS)—S-(4-{[4-{[(1R,2R)-2-Hydroxy-1-methylpropyl]oxy}-5-(trifluoromethyl)pyrimidin-2-yl]-amino}phenyl)-S-methylsulfoximide] | 

Source: patent US20130210846A1, “USE OF NOVEL PAN-CDK INHIBITORS FOR TREATING TUMORS” (BAYER INTELLECTUAL PROPERTY GMBH, priority 2010, published 2013)
